From patent publication US20220041665A1, “POLYNUCLEOTIDE AND USES THEREOF” (Helsingin yliopisto, priority 2019, published 2022)

Experiments:
Format in all cases: cell-based, human
[1] = tested on: seipin; assay: Depletion of endogenous seipin tagged with mAID-mEGFP in A431 cells expressing OsTIR1; details: cells expressing OsTIR1, no IAA
From the text: Initially seipin, a conserved transmembrane protein in the endoplasmic reticulum (ER) involved in lipid droplet (LD) biogenesis, was targeted for degradation. To rapidly deplete seipin from human A431 cells, an AID system, composed of TIR1 derived from Oryza sativa (OsTIR1) and mAID degron of 65 amino acids corresponding to AAs 68-132 of AtIAA17 (SEQ ID NO: 3), referred herein to as miniAID, was first employed. To this end, the endogenous seipin was homozygously tagged with mAID-mEGFP.

[2] = tested on: seipin-mEGFP; assay: FACS screen of auxin perceptive proteins and degrons (mean GFP intensity) in A431 cell pools; details: cells expressing AtAFB2 and seipin-mEGFP with degron insertion; 0 h, 1 h, 16 h IAA
Protocol: To search for an improved AID system to solve the issue, a pipeline was first established in human A431 cells to screen AID components (FIG. 2A). Various auxin perceptive proteins and degrons were selected for screening. Several TIR1 and AFB2 proteins from different plant species were tested, as well as degrons derived from AtIAA17 (SEQ ID NO: 3), these including amino acid (aa.) 65-132 (miniAID), aa. 62-109, aa. 71-114. All these degrons were included in the screen. […] These high affinity fragments were tested, assuming higher affinity might translate into more efficient inducible degradation. Degrons with KR dipeptide deletions were tested to see if they would have an effect on enhancing IAA binding affinity, IAA-inducible depletion or as part of a nuclear localization signal. […]
For FACS analysis, cells were seeded at 1:5 (for A431) or 1:3 (for A549) into 6-well plate in medium without selection on day 0. […] Cells were gated with SSC, FSC and trigger pulse width for singlets and 100 000 cells were analyzed for each sample. GFP was excited with 488 nm laser and detected with 530/40 detector; mCherry was excited with 561 nm lasers and detected with 615/20 detector. Data was analyzed with BD FACS Sortware. Background subtracted mean fluorescence intensity was used for analysis.

[3] = tested on: A431 cells with tagged DHC1; assay: Analysis of cell division in A431 cells with tagged DHC1
Protocol: Cells were plated on μ-slide 8-well ibiTreat dishes at 0.1×10^5 cells per well 2 days before the experiment. On the experiment day, cells were loaded with 2 μM CellTracker™ Red CMTPX (Thermo, CAT #C34552) in complete medium for 15-30 min at 37° C. Medium was then changed to FluroBrite containing 10% FBS and incubated at 37° C. for 1-2 h before imaging to equilibrate the labelling. Cells were imaged with Nikon Eclipse Ti-E microscope equipped with 20× air objective, Nikon Perfect Focus System 3, Hamamatsu Flash 4.0 V2 scientific CMOS and Okolab stage top incubator system. Before recording, 6 fields for each of the 8 wells were selected with Celllracker™ Red fluorescence. IAA was then added at a final 0.5 mM concentration to IAA-treated cells, mixed well with pipetting, and time lapse imaging started immediately recording every 30 min for 16 h. Mitotic rounding cells were counted manually in the videos from 0.5 h to 6 h. Mitotic rounding cells without cell division were followed till 13 h.

[4] = tested on: A549 cells with tagged EGFR; assay: EGF uptake in A549 cells with tagged EGFR
Protocol: A549 cells were seeded at 0.4×10^5 cells per 4-well for 3 days. Medium was changed to fresh medium with or without 0.5 mM IAA for 1 h. Cells were washed twice with ice-cold serum free medium with 1% BSA and 0.2 ml of 2 μg/ml Alexa Fluor™ 647 EGF complex (ThermoFisher, E35351) in serum free medium with 1% BSA was added. Cells were further incubated at 37° C. for 20 min before harvesting with trypsin. Samples were kept on ice before FACS analysis. Alexa Fluor™ 647 was excited with 640 nm laser and detected with 720/40 detector, analysing 20 000 cells per sample. Negative control samples were cells incubated in medium without EGF complex. Background subtracted mean fluorescence intensity was used for analysis.

[5] = control cells without auxin perceptive protein

Sequence of seipin (Q96G97+P93830 fused): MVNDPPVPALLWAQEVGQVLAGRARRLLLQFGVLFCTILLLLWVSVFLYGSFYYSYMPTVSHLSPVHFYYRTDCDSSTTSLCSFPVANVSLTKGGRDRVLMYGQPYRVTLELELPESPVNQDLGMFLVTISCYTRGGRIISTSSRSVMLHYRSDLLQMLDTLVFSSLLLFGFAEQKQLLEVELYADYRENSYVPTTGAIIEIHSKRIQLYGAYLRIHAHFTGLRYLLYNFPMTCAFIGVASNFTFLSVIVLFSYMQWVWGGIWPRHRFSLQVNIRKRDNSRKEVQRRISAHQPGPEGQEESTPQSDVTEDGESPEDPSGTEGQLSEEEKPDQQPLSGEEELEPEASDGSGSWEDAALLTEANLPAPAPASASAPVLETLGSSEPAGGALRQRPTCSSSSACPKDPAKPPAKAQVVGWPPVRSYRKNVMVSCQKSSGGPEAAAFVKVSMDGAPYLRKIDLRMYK

miniAID: mAID degron of 65 amino acids corresponding to AAs 68-132 of AtIAA17 (SEQ ID NO: 3)
degradation of tagged seipin without IAA addition [1]: severely degraded

aa.82-101: minimal truncated AtIAA7 degron, aa. 82-101 of SEQ ID NO: 1 (QVVGWPPVRNYRKNMMTQQK; listed as Arabidopsis thaliana)
auxin-inducible degradation of truncated AtIAA7 degron [2]: similarly to miniIAA7

O=C(O)Cc1c[nH]c2ccccc12 [IAA, indole-3-acetic acid]
fraction of mitotic rounding cells that completed cell division ([3]; DHC1-AtAFB2 cells, after IAA addition for 30 min (0.5 mM)): 0% | effect of IAA per se on cell division [3, 5]: did not affect | reduction of EGF uptake ([4]; EGFR-AtAFB2 cells, 1 h IAA treatment (0.5 mM)): 75% | effect of IAA per se on EGF uptake [4, 5]: did not affect
